Reference: US20100197642A1, “SLOW RELEASE MISOPROSTOL FOR OBSTETRIC AND/OR GYNAECOLOGICAL APPLICATIONS” (priority 2007, published 2010)

Legend:
[1] = Pharmacokinetic study of misoprostol acid (MPA) plasma levels after SR oral, sublingual or vaginal misoprostol; assay type: in vivo, women; details: 400 μg
Description: A study was performed with healthy women ≧18 years with a viable intrauterine pregnancy of up to 12 weeks (47-83 days) of gestation who had requested termination of pregnancy by vacuum aspiration.
After giving their informed consent, eligible women were allocated randomly to the three treatment groups using computer generated random tables and numbered, sealed, opaque envelopes opened consecutively. […] The SR misoprostol tablets were swallowed with a small amount of water. Women allocated to vaginal misoprostol treatment inserted the tablets intravaginally themselves.
The women were admitted to hospital in the morning after fasting overnight.
The blood samples were immediately cooled in a refrigerator at +6° C. for 30-60 minutes and thereafter centrifuged in a cooled centrifuge for 10 minutes at 3000 rpm. The plasma was then drawn from the blood samples and stored at below −20° C. for further analyses. […]
AUC was calculated according to the trapezoidal method, by dividing the area under the curve into trapezium segments according to the time intervals of blood sampling. […] The AUC720 was calculated by summation of the trapezium segments. Pulse, blood pressure and temperature were measured repeatedly and side-effects such as nausea, abdominal pain, skin rash or diarrhoea were recorded, as well as any analgesics given. […]

[2] = cited from earlier work

SMILES: CCCCC(C)(O)C/C=C/[C@H]1[C@H](O)CC(=O)[C@@H]1CCCCCCC(=O)OC (mixture of isomers) [misoprostol, (±) methyl 7-[3-(α-hydroxy-2-β-(4(RS)-4-hydroxy-4-methyl-trans-1-octen-1-yl)-oxycyclopent-1α-yl]heptanoate]
- cumulative AUC of MPA over time (FIG. 2) ([1]; sublingual group): did not continue to rise after 6 hours
- cumulative AUC of MPA over time (FIG. 2) ([1]; vaginal group): did not continue to rise after 6 hours
- time at which plasma misoprostol level peaks ([2]; 400 μg oral misoprostol): about 30 minutes
- time after administration with detectable levels of MPA remaining ([2]; vaginal administration): 6 h
- time to maximum plasma level ([2]; vaginal administration): 70 to 80 min
